From patent publication US11364242B2, “Treatment agents for inhibiting HIV and cancer in HIV infected patients” (UNIVERSITY OF MARYLAND, BALTIMORE, priority 2015, dated 2022)
pEC50: −log10 of the molar value. Like-named read-outs stand apart in the source and are kept apart here.

Assays:
[1] = system: HIV-1; test: HIV production in PHA activated PBMCs, p24 ELISA day 7; details: p24 day 7
[2] = system: PBMCs
[3] = system: HIV-1 BaL; test: Antiretroviral potency with and without INK128 in PBLs infected with HIV BaL; type: cell-based; details: Human immunodeficiency virus 1, BAL, PBMC, PBMCs, two donors
Protocol: PBLs were separated from buffy coats by density centrifugation over Ficoll-Hypaque (Sigma™), and activated by culture in the presence of 1 μg/mL anti-human CD3 antibody (clone x35, Fisher Scientific™) and 2 μg/mL anti-human CD28 antibody (Clone CD28.6, eBioscience™) for 3 days. Activated cells were infected by incubation with virus at a multiplicity of infection (MOI) of 0.001 for 2 hours. Infected cells were washed three times with PBS and cultured in 5% CO2 at 37° C., in RPMI/10% FBS supplemented with 100 units/mL IL-2 (Roche™) and antiviral drugs, in 96-well flat-bottom plates at a density of […] PBLs per 200 μL. Following 3 d of culture, half of the medium was replaced with fresh medium containing IL-2 and antiviral drugs. On day 7, viral replication was measured by p24 ELISA (Coulter) in culture supernatants and cell viability was measured by MTT assays.
Available ARTs target the HIV lifecycle steps of entry, reverse transcription, integration, and maturation. […] In addition, by targeting virus transcription, INK128 could have favorable interactions with inhibitors of reverse transcription (RTIs), integration (Hs), and protease (PIs). […] We conducted these assays in activated PBLs infected with R5 HIV BaL and treated with various dilutions of Maraviroc (CCR5 antagonist), Efavirenz (RTI), Raltegravir (II), and Indinavir (PI). INK128 was used at low concentrations (<EC50) to better detect changes in ART potency (Table 7).
Prism software. Data are from 2 experiments, each with a different donor.

[4] = +3 nM INK128, read-out: EC50 (geometric mean)
[5] = +10 nM INK128, read-out: EC50 (geometric mean)
[6] = No INK128, read-out: EC50 (geometric mean)

pEC50 [3, 4]	pEC50 [3, 5]	pEC50 [3, 6]	SMILES	further results
–	–	–	Nc1ccc(-c2ccc3ncc4ccc(=O)n(-c5cccc(C(F)(F)F)c5)c4c3c2)cn1 [Torin-2, 9-(6-Amino-3-pyridinyl)-1-[3-(trifluoromethyl)phenyl]-benzo[h]-1,6-naphthyridin-2(1H)-one]	HIV inhibition in vitro [1]: inhibits HIV in vitro; cell toxicity [2]: absence of cell toxicity
8.50	8.52	8.42	CC(C)(C)NC(=O)[C@@H]1CN(Cc2cccnc2)CCN1C[C@@H](O)C[C@@H](Cc1ccccc1)C(=O)N[C@H]1c2ccccc2C[C@H]1O [IND]	–
–	–	–	Cc1nnc(C(=O)NC(C)(C)c2nc(C(=O)NCc3ccc(F)cc3)c(O)c(=O)n2C)o1 [RAL]	pEC50 ([3]; read-out: EC50 (geometric mean), +3 nM INK128): 9.09; pEC50 ([3]; read-out: EC50 (geometric mean), +10 nM INK128): 9.24; pEC50 ([3]; read-out: EC50 (geometric mean), No INK128): 9.19
9.29	9.29	9.28	O=C1Nc2ccc(Cl)cc2[C@@](C#CC2CC2)(C(F)(F)F)O1 [EFV]	–
